Tests used:
rat EP4 receptor [1] = target: T1, rat EP4 receptor (Rattus norvegicus, UniProt P43114); experiment: Evaluation test of rat EP4 receptor affinity ([3H]PGE2 binding, membrane fraction of HEK293 cells expressing rat EP4); parameters: expressed in transfected cells; host or cells: HEK293 cells, transient transfection with Lipofectamine 2000; membrane fraction; conditions: [3H]PGE2 0.3 nM
Experimental: Evaluation Test of Rat EP4 Receptor Affinity
Cell Culturing and Transfection
Using a 10 cm collagen-coated dish (Asahi Glass), HEK293 cells were cultured in D-MEM culture medium, the culture medium was removed at a confluence (90 to 100% density state) and washed with a phosphate buffer saline (PBS), and then the cells were detached with N,N,N′,N′-tetrakis(carboxymethyl)ethylenediamine (EDTA). The number of the cells were counted and seeded on a 15 cm collagen-coated dish to a confluence of 70%. On the next day, to an Opti-MEM culture medium at 1.2 mL/dish was added Lipofectamine 2000 (Invitrogen) at 60 μL/dish, followed by leaving to stand at room temperature for 5 minutes. A plasmid in which rat EP4 (Sequence Number 1) had been inserted into a TA cloning site of pcDNA3.1-V5-His-topo was added thereto at 15 μg/dish. After leaving to stand at room temperature for 30 minutes, the resultant was added to the dish and cultured for 20 to 24 hours. The cell culture was carried out in a CO2 incubator (37° C., 5% CO2).
Preparation of Membrane Fraction
The culture medium was removed by suction, 10 mL of cooled PBS was added thereto per 15 cm dish, and the cells were scraped using a cell scraper (Sumitomo Bakelite). They were washed with cooled PBS (1,200 rpm, 4° C., 5 min), and then suspended in 6 mL of cooled 20 mM Tris-HCl (pH 7.4; Nakalai Tesque Inc., including 5 mM EDTA (Nakalai Tesque Inc.) per dish and the resultant was homogenized using a Polytron and the homogenate was centrifuged (26,000 rpm, 20 min, 4° C.). The obtained precipitate was resuspended in cooled 20 mM Tris-HCl and homogenized again using a Polytron, and the homogenate was centrifuged (26,000 rpm, 20 min, 4° C.). The obtained precipitate was resuspended in 50 mM HEPES (pH 7.5; Dojindo Laboratories) at 1 mL per dish, homogenized using a Polytron, and freeze-stored at −80° C. as a membrane fraction. At this time, a part thereof was used for the measurement of the protein concentration. Measurement of the protein concentration was carried out in duplicate using a Bio-Rad Protein assay kit (Bio-Rad Laboratories) in accordance with the appended standard Protocol.
[^3H]PGE2 50 μL (final concentration 0.3 nM; Perkin Elmer), 100 μL (20 μg/well) of a membrane fraction prepared from the rat EP4 expression cell and 50 μL of a test compound were mixed in a 96-well microplate (Sumitomo Bakelite), incubated at room temperature for 1 hour, filtered by suction on a UniFilter-96 GF/B (Perkin Elmer) using a FilterMate Harvester (Perkin Elmer), and then washed three times with 300 μL/well of a cooled assay buffer. Dilution of [^3H]PGE2 and the membrane fraction was carried out using an assay buffer (50 mM HEPES, 10 mM MgCl2), and dilution of the test compound and the unlabeled PGE2 was carried out using DMSO and an assay buffer. Further, in the case of the addition of a human serum albumin (HSA), dilution was carried out using an assay buffer containing 4% HSA (final concentration 1%; Sigma). The UniFilter-96 GF/B was treated preliminarily by washing twice with 200 μL/well of a cooled assay buffer. The UniFilter-96 GF/B after filtration was dried in a dryer overnight, 50 μL/well of MicroScint20 (Perkin Elmer) was added thereto, and then the radioactivity was measured using a TopCount (Perkin Elmer). For measurement of the non-specific binding, an unlabeled PGE2 (final concentration 1 μM; Cayman) was added. All of the measurements were carried out in duplicate, and the specific binding amount was determined by subtracting the non-specific binding amount from the total binding amount. The Ki value was calculated according to the general methods.
In the connection, Ex represents the below-described Example Compound number.

rat EP4 receptor [2] = target: T1, rat EP4 receptor; experiment: In vivo rat EP4 receptor antagonistic activity (ONO-4819/LPS, plasma TNF-α); conditions: SD rat, oral
Experimental: Evaluation Test of In Vivo Rat EP4 Receptor Antagonistic Activity
A solution of PEG 400:20% Tween 80:aqueous 1 M NaHCO3 solution=1:4:5 of a test compound was orally administered to a SD rat (male, 6-week old) under non-fasting conditions, and after 1 hour, ONO-4819 was administered subcutaneously to the back of the rat. After 30 minutes, Lipopolysaccharide (LPS, 0.01 mg/kg) was administered to the tail vein without anesthesia, and after 60 minutes, 0.5 mL of heparin blood was collected from the fundus under ether anesthesia. The blood sample was centrifuged (3000 rpm, 10 minutes) to separate the plasma, and then the TNF-α concentration in the rat plasma was measured by an ELISA kit (see Hepatology Research Journal, vol. 21, 252-260, 2001). A value obtained by subtracting the TNF-α concentration of the group treated with ONO-4819 from the TNF-α concentration of the group not treated with ONO-4819 was taken as 100%, and the inhibitory rates to the value were calculated for the test compounds.
In this connection, Ex represents the below-described Example compound number.

T1 sequence (P43114 whole entry): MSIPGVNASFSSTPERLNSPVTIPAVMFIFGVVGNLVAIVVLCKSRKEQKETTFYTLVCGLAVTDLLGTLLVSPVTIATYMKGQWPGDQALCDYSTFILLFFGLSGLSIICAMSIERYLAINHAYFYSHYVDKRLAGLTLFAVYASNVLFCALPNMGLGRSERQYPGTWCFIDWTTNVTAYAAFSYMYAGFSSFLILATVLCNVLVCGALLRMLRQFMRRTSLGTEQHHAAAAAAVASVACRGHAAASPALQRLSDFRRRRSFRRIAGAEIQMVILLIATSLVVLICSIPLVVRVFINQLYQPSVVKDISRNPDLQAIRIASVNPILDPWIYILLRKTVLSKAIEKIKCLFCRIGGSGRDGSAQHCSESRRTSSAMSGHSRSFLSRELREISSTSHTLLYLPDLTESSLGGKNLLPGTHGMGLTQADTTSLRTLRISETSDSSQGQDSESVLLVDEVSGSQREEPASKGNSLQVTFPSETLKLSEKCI

SMILES: C[C@H](NC(=O)c1cccc2ccn(Cc3ccc(-c4ccccc4)nc3)c12)c1ccc(C(=O)O)cc1 [Example 4, 4-{(1S)-1-[({1-[(6-phenylpyridin-3-yl)methyl]-1H-indol-7-yl}carbonyl)amino]ethyl}benzoic acid]
- Ki (rat EP4 receptor [1]): 0.82 nM

SMILES: C[C@H](NC(=O)c1cccc2ccn(Cc3ccc(Cl)cc3)c12)c1ccc(C(=O)NS(=O)(=O)CCCO)cc1 [Example 6, 1-(4-chlorobenzyl)-N-[(1S)-1-(4-{[(3-hydroxypropyl)sulfonyl]carbamoyl}phenyl)ethyl]-1H-indole-7-carboxamide]
- Ki (rat EP4 receptor [1]): 31 nM

SMILES: CN(NC(=O)c1cccc2ccn(CCOc3ccc(Cl)cc3)c12)c1ccc(C(=O)O)cc1 [Example 23]
- Inhibitory rate (%) (rat EP4 receptor [2]; dose 0.01 mg/kg): 51%
- Ki (rat EP4 receptor [1]): 0.35 nM

SMILES: O=C(NC[C@H]1CC[C@H](C(=O)O)CC1)c1cccc2ccn(Cc3ccc(Cl)cc3)c12 [Example 32]
- Ki (rat EP4 receptor [1]): 12 nM

SMILES: O=C(NC[C@H]1CC[C@H](C(=O)O)CC1)c1cc(Cl)cc2ccn(Cc3ccc(Cl)cc3)c12 [Example 52]
- Ki (rat EP4 receptor [1]): 1.8 nM

SMILES: O=C(NC[C@H]1CC[C@H](C(=O)O)CC1)c1cc(C(F)(F)F)cc2ccn(Cc3ccc(Cl)cc3)c12 [Example 69]
- Ki (rat EP4 receptor [1]): 1.4 nM

SMILES: Cc1cc(C(=O)NC[C@H]2CC[C@H](C(=O)O)CC2)c2c(ccn2Cc2ccc3ccccc3n2)c1 [Example 96]
- Inhibitory rate (%) (rat EP4 receptor [2]; dose 0.01 mg/kg): 57%
- melting point: 244 to 245 °C (dec.)
- Ki (rat EP4 receptor [1]): 1.7 nM

SMILES: C[C@H](NC(=O)c1cccc2ccn(Cc3ccc(-c4ccccc4)cn3)c12)c1ccc(C(=O)O)cc1 [Example 115]
- Inhibitory rate (%) (rat EP4 receptor [2]; dose 0.03 mg/kg): 60%
- Ki (rat EP4 receptor [1]): 1 nM

SMILES: C[C@H](NC(=O)c1cccc2ccn(Cc3ccc(N4CCCCC4)nc3)c12)c1ccc(C(=O)O)cc1 [Example 132]
- Ki (rat EP4 receptor [1]): 2.6 nM

SMILES: O=C(NC[C@H]1CC[C@@H](C(=O)O)CC1)c1cccc2ccn(Cc3ccc(Cl)cc3)c12 [Example 137]
- Ki (rat EP4 receptor [1]): 9.1 nM

SMILES: C[C@H](NC(=O)c1cccc2ccn(Cc3coc(-c4ccccc4)n3)c12)c1ccc(C(=O)O)cc1 [Example 140]
- Ki (rat EP4 receptor [1]): 0.61 nM

SMILES: O=C(O)c1ccc(CNC(=O)c2cc(Cl)cc3ccn(Cc4cc5ccccc5cn4)c23)cc1 [Example 143]
- Inhibitory rate (%) (rat EP4 receptor [2]; dose 0.03 mg/kg): 70%
- Ki (rat EP4 receptor [1]): 1 nM

SMILES: O=C(NC[C@H]1CC[C@H](C(=O)O)CC1)c1cc(Cl)cc2ccn(Cc3cc4ccccc4cn3)c12 [Example 146]
- Inhibitory rate (%) (rat EP4 receptor [2]; dose 0.01 mg/kg): 88%
- Ki (rat EP4 receptor [1]): 1.8 nM

SMILES: O=C(NC[C@H]1CC[C@H](C(=O)O)CC1)c1cc(C(F)(F)F)cc2ccn(Cc3cc4ccccc4cn3)c12 [Example 159]
- Inhibitory rate (%) (rat EP4 receptor [2]; dose 0.03 mg/kg): 68%
- Ki (rat EP4 receptor [1]): 2.1 nM

SMILES: C[C@H](NC(=O)c1cccc2ccn(CCOC3CCCCC3)c12)c1ccc(C(=O)O)cc1 [Example 164]
- Ki (rat EP4 receptor [1]): 6.3 nM

SMILES: O=C(O)c1ccc(CNC(=O)c2cccc3ccn(Cc4cc5ccccc5o4)c23)cc1 [Example 187]
- Inhibitory rate (%) (rat EP4 receptor [2]; dose 0.03 mg/kg): 58%
- Ki (rat EP4 receptor [1]): 0.75 nM

SMILES: O=C(NC[C@H]1CC[C@H](C(=O)O)CC1)c1cccc2ccn(Cc3cc4ccccc4o3)c12 [Example 188]
- Inhibitory rate (%) (rat EP4 receptor [2]; dose 0.01 mg/kg): 88%
- Ki (rat EP4 receptor [1]): 1.2 nM

SMILES: O=C(NC[C@H]1CC[C@H](C(=O)O)CC1)c1cccc2ccn(Cc3cc4ccccc4s3)c12 [Example 206]
- Inhibitory rate (%) (rat EP4 receptor [2]; dose 0.01 mg/kg): 72%
- Ki (rat EP4 receptor [1]): 1.2 nM

SMILES: CN(NC(=O)c1cccc2ccn(Cc3csc(-c4ccccc4)n3)c12)c1ccc(C(=O)O)cc1 [Example 207]
- Inhibitory rate (%) (rat EP4 receptor [2]; dose 0.03 mg/kg): 83%
- Ki (rat EP4 receptor [1]): 1.1 nM

SMILES: O=C(O)c1ccc(CNC(=O)c2cc(Cl)cc3ccn(Cc4csc(-c5ccccc5)n4)c23)cc1 [Example 208]
- Inhibitory rate (%) (rat EP4 receptor [2]; dose 0.01 mg/kg): 35%
- Ki (rat EP4 receptor [1]): 1.8 nM

SMILES: O=C(NC[C@H]1CC[C@H](C(=O)O)CC1)c1cc(Cl)cc2ccn(Cc3csc(-c4ccccc4)n3)c12 [Example 209]
- Ki (rat EP4 receptor [1]): 1.9 nM

SMILES: O=C(NC[C@H]1CC[C@H](C(=O)O)CC1)c1cc(Cl)cc2ccn(CCOc3ccc(Cl)cc3)c12 [Example 210]
- Inhibitory rate (%) (rat EP4 receptor [2]; dose 0.03 mg/kg): 67%
- Ki (rat EP4 receptor [1]): 1.3 nM

SMILES: O=C(O)c1ccc(CNC(=O)c2cc(Cl)cc3ccn(CCOc4ccc(Cl)cc4)c23)cc1 [Example 211]
- Inhibitory rate (%) (rat EP4 receptor [2]; dose 0.01 mg/kg): 43%
- Ki (rat EP4 receptor [1]): 1.7 nM

SMILES: O=C(O)c1ccc(CNC(=O)c2cc(C(F)(F)F)cc3ccn(Cc4csc(-c5ccccc5)n4)c23)cc1 [Example 212]
- Inhibitory rate (%) (rat EP4 receptor [2]; dose 0.01 mg/kg): 52%
- Ki (rat EP4 receptor [1]): 2.4 nM

SMILES: O=C(NC[C@H]1CC[C@H](C(=O)O)CC1)c1cc(C(F)(F)F)cc2ccn(Cc3csc(-c4ccccc4)n3)c12 [Example 213]
- Inhibitory rate (%) (rat EP4 receptor [2]; dose 0.01 mg/kg): 75%
- Ki (rat EP4 receptor [1]): 2 nM

SMILES: O=C(NC[C@H]1CC[C@H](C(=O)O)CC1)c1cc(C(F)(F)F)cc2ccn(Cc3ccc(-c4ccccc4)cn3)c12 [Example 214]
- Inhibitory rate (%) (rat EP4 receptor [2]; dose 0.01 mg/kg): 62%
- Ki (rat EP4 receptor [1]): 2.2 nM

SMILES: O=C(NC[C@H]1CC[C@H](C(=O)O)CC1)c1cc(C(F)(F)F)cc2ccn(Cc3cccc(Cl)n3)c12 [Example 216]
- Ki (rat EP4 receptor [1]): 16 nM

SMILES: O=C(NC[C@H]1CC[C@H](C(=O)O)CC1)c1cc(C(F)(F)F)cc2ccn(Cc3cnc4ccccc4c3)c12 [Example 217]
- Ki (rat EP4 receptor [1]): 3 nM

SMILES: O=C(NC[C@H]1CC[C@H](C(=O)O)CC1)c1cc(C(F)(F)F)cc2ccn(Cc3ccc4cccnc4c3)c12 [Example 218]
- Ki (rat EP4 receptor [1]): 2.9 nM

SMILES: O=C(NC[C@H]1CC[C@H](C(=O)O)CC1)c1cc(C(F)(F)F)cc2ccn(Cc3cccc4cccnc34)c12 [Example 219]
- Ki (rat EP4 receptor [1]): 3.3 nM

SMILES: O=C(NC[C@H]1CC[C@H](C(=O)O)CC1)c1cc(C(F)(F)F)cc2ccn(Cc3cccc4cnccc34)c12 [Example 220]
- Ki (rat EP4 receptor [1]): 16 nM

SMILES: O=C(NC[C@H]1CC[C@H](C(=O)O)CC1)c1cc(C(F)(F)F)cc2ccn(Cc3ccc4ncccc4c3)c12 [Example 222]
- Ki (rat EP4 receptor [1]): 2.8 nM

SMILES: O=C(NC[C@H]1CC[C@H](C(=O)O)CC1)c1cc(C(F)(F)F)cc2ccn(Cc3ccc4ccncc4c3)c12 [Example 223]
- Ki (rat EP4 receptor [1]): 3.5 nM

SMILES: O=C(NC[C@H]1CC[C@H](C(=O)O)CC1)c1cc(F)cc2ccn(Cc3cc4ccccc4cn3)c12 [Example 225]
- Inhibitory rate (%) (rat EP4 receptor [2]; dose 0.003 mg/kg): 77%
- Ki (rat EP4 receptor [1]): 2.1 nM

SMILES: O=C(NC[C@H]1CC[C@H](C(=O)O)CC1)c1c(F)ccc2ccn(Cc3cc4ccccc4cn3)c12 [Example 226]
- Ki (rat EP4 receptor [1]): 2.8 nM

SMILES: O=C(NC[C@H]1CC[C@H](C(=O)O)CC1)c1cc(Cl)cc2ccn(Cc3cc4ccccc4o3)c12 [Example 227]
- melting point: 228 to 230 °C
- Ki (rat EP4 receptor [1]): 1.7 nM

SMILES: O=C(NC[C@H]1CC[C@H](C(=O)O)CC1)c1cc(C(F)(F)F)cc2ccn(Cc3cc4ccccc4o3)c12 [Example 228]
- Ki (rat EP4 receptor [1]): 2.1 nM

SMILES: O=C(NC[C@H]1CC[C@H](C(=O)O)CC1)c1cc(C(F)(F)F)cc2ccn(Cc3ccc(Cl)cn3)c12 [Example 229]
- melting point: 224 to 226 °C (dec.)
- Ki (rat EP4 receptor [1]): 3.9 nM

SMILES: O=C(NC[C@H]1CC[C@H](C(=O)O)CC1)c1cc(C(F)(F)F)cc2ccn(Cc3cc4cc(Cl)ccc4o3)c12 [Example 231]
- melting point: 211 to 213 °C
- Ki (rat EP4 receptor [1]): 1.4 nM
